Measurements published in PubChem BioAssay AID2060494 (Molecular Pharmacology Branch, DTP, NCI, 2025).
Where “and” joins values, the source holds several entries; their conditions need not be identical. Equal entries are not always repeated.

System: 435261-313-R-J1-PDC complex spheroid viability
Assay: Anticancer human tumor 435261-313-R-J1-PDC patient-derived colon adenocarcinoma cell line growth inhibition [GQUAD]
Details: for viability, T/C: stronger effect = lower value; for IC50: curve of compound
From the text: DNA G-quadruplex Stabilizer Agents in Combinations in Complex Spheroids
A high-throughput screen of multi-cell type tumor spheroids was designed to identify active combinations of DNA G-quadruplex stabilizer agents and targeted small molecules. Complex spheroids include a stromal component modeled by human endothelial cells (HUVEC) and fibroblasts modeled by human mesenchymal stem cells (MSCs). The concentration ranges selected for each drug and investigational agent were based upon clinically achievable concentrations if the clinical Cmax of the agent was known.
Compounds. The drugs and investigational agents: pidnarulex (CX-5461; NSC782164), APTO-253 (NSC789042), BRACO-19 (NSC847499), peposertib (NSC802822), ceralasertib (NSC780249), elimusertib (NSC800525), camonsertib (NSC841442), AZD-1390 (NSC803789), olaparib (NSC753686), talazoparib (NSC767125), ART-558 (NSC835418), sotorasib (NSC818433), MRTX-1133 (NSC836407), SN-38 (NSC673596), topotecan (NSC609699), etoposide (NSC141540), doxorubicin (NSC123127), gemcitabine (NSC613327), 5-fluorouracil (NSC19893), paclitaxel (NSC125973), vemurafenib (NSC761431), panobinostat (NSC761190), R-306465 (JNJ-16241199; NSC773264), adavosertib (NSC754352), TP-3654 (NSC805149), carboplatin (NSC241240), KSQ-4279 (NSC840948), and staurosporine (NSC755774) were obtained from the National Cancer Institute (NCI) Developmental Therapeutics Program Chemical Repository (34). The FDA-approved anticancer drug set is available from the NCI Developmental Therapeutics Program. […] The stock solutions were prepared in dimethyl sulfoxide (DMSO, Sigma-Aldrich, St. Louis, MO, cat. D2650) at 800-fold the tested concentration and stored at -70 degrees C prior to their use. All drugs and investigational agents were tested over a range starting from a high concentration at or near the clinical Cmax and decreasing in half-log increments. If the clinical Cmax for an agent had not been determined, the highest concentration tested was 10 microM.
2.3 Cell Culture. All cells were maintained in an incubator at 37 degrees C and 5% CO2 with 95% humidity. The PDC lines were cultured according to standard operating procedures established by the NCI PDMR. All PDCs were thawed and cultured in Matrigel-coated flasks prepared with a working solution of 1X Ham's F-12 nutrient mix, without supplementation (Invitrogen, cat. 11765054), 100 U/mL penicillin-streptomycin (Invitrogen, cat. 15140122), and 2.5% Matrigel (Corning Inc., cat. 354248) for the first three passages. The 857933-349-R-J2-PDC line was cultured in 6C/Colon 1B media, which includes advanced DMEM/F-12 (Thermo Fisher Scientific, cat. 12634028), 10 mM HEPES (Thermo Fisher Scientific, cat. 15630080), 1X GlutaMAX supplement (Thermo Fisher Scientific, cat. 35050061), 0.1 mg/mL primocin (InvivoGen, cat. ant-pm-2), 10% defined fetal bovine serum, heat inactivated (HyClone Laboratories Inc., cat. SH30070.03HI), 50% L-WRN conditioned media (ATCC, cat. CRL-3276), 1.25 mM N-Acetyl-L-cysteine (Sigma-Aldrich, cat. A9165), 10 mM nicotinamide (Sigma-Aldrich, cat. N0636), 1X B-27 supplement (Thermo Fisher Scientific, cat. 17504044), 1X N-2 supplement (Thermo Fisher Scientific, cat. 17502048), 10 microM Y-27632 dihydrochloride (Tocris Bioscience, cat. 1254), and 50 ng/mL human EGF recombinant protein (Thermo Fisher Scientific, cat. PHG0311). The 485176-168-R4-J1-PDC line was cultured in Panc media, which includes all 6C/Colon 1B media components plus 100 ng/mL human FGF-10 (Thermo Fisher Scientific, cat. 100-26), 500 nM SB-431542 (Selleckchem, cat. S1067), and gastrin (Tocris, cat. 3006).
[…]
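Further: spheroids exposed to the agents for seven days before readout.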
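Wherever viability, T/C is given: percent of vehicle control viability with DMSO wells as 100%.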

| SMILES | viability, T/C (compound 0.0316 µM) | viability, T/C (compound 0.1 µM) | viability, T/C (compound 0.316 µM) | viability, T/C (compound 1 µM) | viability, T/C (compound 3.16 µM) | viability, T/C (compound 10 µM) | IC50 | viability, T/C (compound 0.000999 µM) | viability, T/C (compound 0.00316 µM) | viability, T/C (compound 0.00999 µM) | viability, T/C (compound 0.0999 µM) |
| --- | --- | --- | --- | --- | --- | --- | --- | --- | --- | --- | --- |
| Cc1cccc(N(C)C(=O)C2C(O)CCN2c2nc(C)cc(C(F)(F)F)c2C#N)c1 (stereo not drawn) | 102% and 105% and 116% | 94.8% and 106% and 102% | 138% and 103% and 89.8% | 106% and 93.5% and 114% | 100% and 89.1% and 85.5% | 122% and 94.3% and 84% | > 10 µM | – | – | – | – |
| Nc1ccn(C2OC(CO)C(O)C2(F)F)c(=O)n1 (stereo not drawn) | 54.8% and 88.1% and 71.3% | 48.5% and 89.5% and 58.6% | 54.9% and 84.8% and 61.3% | 51.8% and 98.2% and 50.4% | 58.7% and 76.3% and 69.7% | 51.3% and 66.3% and 51.9% | > 10 µM | – | – | – | – |
| O=C(NO)c1cnc(N2CCN(S(=O)(=O)c3ccc4ccccc4c3)CC2)nc1 | 97.4% | 68.3% | 52.4% | 35.2% | 0.38% | 0.16% | 0.318 µM | – | – | – | – |
| CC(C)n1c(=O)n(C)c2cnc3cc(F)c(-c4ccc(OCCCN5CCCCC5)nc4)cc3c21 | 94.4% and 102% | 88% and 71.4% | 109% and 113% | 81.4% and 57.3% | 65.6% and 84.4% | 37.7% and 38.4% | 5.9 µM and 7.09 µM | – | – | – | – |
| O=C(c1cc(Cc2n[nH]c(=O)c3ccccc23)ccc1F)N1CCN(C(=O)C2CC2)CC1 | 104% and 96% | 101% and 90.4% | 80.2% and 95.2% | 98.7% and 88.8% | 82.4% and 119% | 71.2% and 80.3% | > 10 µM | – | – | – | – |
| Cc1cnc(CNC(=O)c2c(=O)c3ccc(N4CCCN(C)CC4)nc3n3c2sc2ccccc23)cn1 | 74.8% [middle of 10 runs] | 64.1% [middle of 10 runs] | 57.7% [middle of 10 runs] | 46.2% [middle of 10 runs] | 9.54% [middle of 10 runs] | 0.19% [middle of 7 runs] | – | – | – | – | – |
| C=CCn1c(=O)c2cnc(Nc3ccc(N4CCN(C)CC4)cc3)nc2n1-c1cccc(C(C)(C)O)n1 | 86.6% and 93% | 114% and 97.5% | 94.4% and 87.1% | 74.3% and 105% | 70.5% and 77.6% | 57.6% and 47% | > 10 µM and 8.92 µM | – | – | – | – |
| CC1COCCN1c1cc(-c2ccnn2C)c2ccnc(-c3ccn[nH]3)c2n1 (stereo not drawn) | 67.8% and 99.2% | 53.6% and 47.4% | 52.6% and 55.7% | 38.4% and 36.9% | 37.2% and 32.5% | 20.3% and 19.5% | 0.321 µM and 0.203 µM | – | – | – | – |
| CC[C@@]1(O)C(=O)OCc2c1cc1n(c2=O)Cc2cc3c(CN(C)C)c(O)ccc3nc2-1 | 85.8% and 74.4% and 89.1% | – | 59% and 68.4% and 67.3% | – | – | – | > 0.316 µM | 126% and 101% and 118% | 61.6% and 94.8% and 94.1% | 96.5% and 98.2% and 110% | 75.2% and 72.1% and 83.8% |
| C=CC(=O)N1CCN(c2nc(=O)n(-c3c(C)ccnc3C(C)C)c3nc(-c4c(O)cccc4F)c(F)cc23)C(C)C1 (stereo not drawn) | 113% and 111% and 86% | 96% and 101% and 88.2% | 127% and 125% and 132% | 106% (2×) and 75.7% | 134% and 124% and 116% | 110% and 131% and 101% | > 10 µM | – | – | – | – |
| CC(C)(O)C1CCC(Nc2ccc3ncc(-c4cccc(C(F)(F)F)c4)n3n2)CC1 (stereo not drawn) | 60.2% | 82% | 82.5% | 36.3% | 9.61% | 12.9% | 0.665 µM | – | – | – | – |
| CC1COCCN1c1cc(C2(O)CC3CCC(C2)O3)c2cnn(-c3ccn[nH]3)c2n1 (stereo not drawn) | 85.4% and 89.4% | 58.9% and 54.2% | 49.8% and 43.1% | 29.2% and 27% | 26.7% and 20.5% | 9.56% and 9.97% | 0.259 µM and 0.174 µM | – | – | – | – |
